Results reported in patent US9415007B2, “Cyanocobalamin low viscosity aqueous formulations for intranasal delivery” (PAR PHARMACEUTICAL INC., priority 2003, dated 2016).

Tests used:
[1] = Uptake of Vitamin B12 into cerebrospinal fluid after intranasal and intramuscular administration; type: in vivo, human; settings: intranasal administration compared with intramuscular injections
From the text: We conducted a non-blinded, single dose, parallel group study to compare the uptake of Vitamin B12 into the cerebrospinal fluid (CSF) after intranasal and intramuscular administration in healthy male and non-pregnant female volunteers. This study compared CSF levels to plasma levels produced by both formulations.
Thirty-six healthy male and non-pregnant female subjects, age 18 and over, were enrolled in the study. Eighteen subjects received a single intranasal dose of 500 mcg delivered as a 0.1 mL spray and eighteen subjects received a single intramuscular dose of 100 mcg delivered intramuscularly. Each subject visited the clinical site three times in a one-month period. These visits consisted of a screening visit, one dosing visit and a final visit.
After each dosing, each subject underwent lumbar puncture only once, with the retrieval of a total 4.0 mL of CSF (4 tubes, 1.0 mL per tube).
In addition to the above, on the day of dosing 7 mL blood samples were drawn before dosing and post dosing at 5, 10, 15 and 20 minutes, and at 0.5, 1, 1½, 2, 3, 4, 6, and 8 hours post-dose (prior to discharge).
The cerebrospinal fluid was evaluated for total Vitamin B12 content. […]
The levels of vitamin B12 were determined in both the CSF and blood serum using Vitamin B12 concentrations in the CSF will be analyzed for Qualitative determination of Vitamin B12 using a validated TOSOH Nex. […]

[2] = prior art (Merkus); not soluble at concentrations greater than; cited from earlier work

Which “ratio of vitamin B12 (CSF) to serum, intranasal versus intramuscular” value [1] does the source give for “5,6-dimethyl-benzimidazolyl cyanocobamide [vitamin B12]” here?
The value was “higher”.

And the “solubility in an aqueous solution” value [2]?
The value was ≤ 1%.
